In patent US20250134869A1, “Pyrrolo[2,3-d]pyrimidinyl, Pyrrolo[2,3-b]pyrazinyl and Pyrrolo[2,3-d]pyridinyl Acryla-mides” (Pfizer Inc, priority 2021, published 2025):
Like-named read-outs stand apart in the source and are kept apart here. Each block holds one molecule with its values, some of them ahead of it.

Biological target: JAK3 enzyme (Homo sapiens (Human), UniProt P52333)
Test: JAK Caliper Enzyme Assay at 4 μM or 1 mM ATP
Format: biochemical
Protocol: JAK Caliper Enzyme Assay at […] or 1 mM ATP
Test article was solubilized in dimethyl sulfoxide (DMSO) to a stock concentration of 30 mM. An 11-point half log dilution series was created in DMSO with a top concentration of 600 μM. […] The compound plates were diluted 1 to 60 resulting in a top final assay compound concentration of 10 μM and a 2% DMSO concentration.
Test article and assay controls were added to a 384-well plate. Reaction mixtures contained 20 mM HEPES, pH 7.4, 10 mM magnesium chloride, 0.01% bovine serum albumin (BSA), 0.0005% Tween […] or 1 mM ATP and […] peptide substrate. […] The assays were initiated by the addition 1 nM JAK3 enzyme and were incubated at room temperature 75 minutes for JAK3. Enzyme concentrations and incubation times were optimized for each new enzyme preps and were modified slightly over time to ensure 20%-30% phosphorylation. The assays were stopped with a final concentration of 10 mM EDTA, 0.1% Coating Reagent and 100 mM HEPES, pH=7.4. The assay plates were placed on a Caliper Life Science Lab Chip 3000 (LC3000) instrument, and each well was sampled using appropriate separation conditions to measure the unphosphorylated and phosphorylated peptide.

[1] = read-out: JAK3 (4 μM ATP) IC50, 4 μM ATP
[2] = read-out: JAK3 (1 mM ATP) IC50, 1 mM ATP

Sequence of JAK3 enzyme (P52333 whole entry, species assumed): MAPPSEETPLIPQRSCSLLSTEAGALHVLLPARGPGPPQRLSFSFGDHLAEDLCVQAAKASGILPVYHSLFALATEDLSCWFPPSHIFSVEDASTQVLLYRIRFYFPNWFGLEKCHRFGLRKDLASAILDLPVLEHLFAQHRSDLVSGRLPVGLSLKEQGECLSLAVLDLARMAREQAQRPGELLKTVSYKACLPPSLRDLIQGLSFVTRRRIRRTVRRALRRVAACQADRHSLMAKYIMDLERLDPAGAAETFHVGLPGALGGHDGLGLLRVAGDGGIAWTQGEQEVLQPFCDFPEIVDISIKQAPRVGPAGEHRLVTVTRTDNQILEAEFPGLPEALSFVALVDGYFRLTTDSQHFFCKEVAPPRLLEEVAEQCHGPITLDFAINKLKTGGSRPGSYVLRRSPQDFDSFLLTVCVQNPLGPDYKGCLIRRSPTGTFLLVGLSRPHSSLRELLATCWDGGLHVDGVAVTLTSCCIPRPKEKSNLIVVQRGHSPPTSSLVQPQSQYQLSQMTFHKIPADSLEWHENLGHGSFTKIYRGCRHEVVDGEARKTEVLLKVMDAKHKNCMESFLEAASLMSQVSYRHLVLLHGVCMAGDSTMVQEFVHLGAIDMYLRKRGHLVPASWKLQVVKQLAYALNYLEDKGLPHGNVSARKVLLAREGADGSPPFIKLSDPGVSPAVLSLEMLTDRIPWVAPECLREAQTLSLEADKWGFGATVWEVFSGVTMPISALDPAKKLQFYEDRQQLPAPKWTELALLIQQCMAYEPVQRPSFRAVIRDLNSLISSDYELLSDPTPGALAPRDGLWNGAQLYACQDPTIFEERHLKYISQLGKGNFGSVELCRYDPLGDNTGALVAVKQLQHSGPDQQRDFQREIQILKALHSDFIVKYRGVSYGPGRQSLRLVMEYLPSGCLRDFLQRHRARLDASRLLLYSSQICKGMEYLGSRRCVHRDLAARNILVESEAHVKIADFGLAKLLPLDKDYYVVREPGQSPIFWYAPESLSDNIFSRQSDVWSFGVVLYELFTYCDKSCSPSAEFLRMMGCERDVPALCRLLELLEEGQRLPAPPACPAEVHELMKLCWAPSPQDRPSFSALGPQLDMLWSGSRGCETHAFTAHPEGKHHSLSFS

Structure (SMILES): O=C(/C=C\CO)N1CCC[C@@H](Nc2ncnc3[nH]ccc23)C1 [Example 100, (2Z)-4-hydroxy-1-[(3R)-3-(7H-pyrrolo[2,3-d]pyrimidin-4-ylamino)piperidin-1-yl]but-2-en-1-one]
IC50 [1]: 0.654 µM
IC50 [2]: > 10 µM

Structure (SMILES): C=CC(=O)N1CCC(Nc2cnc3[nH]cc(C(=O)NCC4CCCC4)c3n2)CC1 [Example 270, 2-[(1-acryloylpiperidin-4-yl)amino]-N-(cyclopentylmethyl)-5H-pyrrolo[2,3-b]pyrazine-7-carboxamide]
IC50 [1]: < 0.0001 µM
IC50 [2]: 0.0086 µM

Structure (SMILES): C/C=C/C(=O)N1CCC[C@@H](Nc2ncnc3[nH]cc(C(=O)NCCOC)c23)C1 [Example 149, 4-({(3R)-1-[(2E)-but-2-enoyl]piperidin-3-yl}amino)-N-(2-methoxyethyl)-7H-pyrrolo[2,3-d]pyrimidine-5-carboxamide]
IC50 [1]: > 10 µM

Structure (SMILES): C=CC(=O)N1CCN(c2cnc3[nH]cc(C(=O)NC(C)C)c3n2)[C@@H](C2CC2)C1 [Example 314, 2-[(2S)-4-acryloyl-2-cyclopropylpiperazin-1-yl]-N-(propan-2-yl)-5H-pyrrolo[2,3-b]pyrazine-7-carboxamide]
IC50 [1]: 0.005 µM
IC50 [2]: 0.662 µM

Structure (SMILES): C=CC(=O)N1CCC(Nc2cnc3[nH]cc(C(=O)NCC(C)(F)F)c3n2)CC1 [Example 282, 2-[(1-acryloylpiperidin-4-yl)amino]-N-(2,2-difluoropropyl)-5H-pyrrolo[2,3-b]pyrazine-7-carboxamide]
IC50 [1]: 0.0002 µM
IC50 [2]: 0.0129 µM

Structure (SMILES): C=CC(=O)N1C[C@H](Nc2ncnc3[nH]ccc23)CC[C@H]1CC [Example 124, 1-[(2R,5R)-2-Ethyl-5-(7H-pyrrolo[2,3-d]pyrimidin-4-ylamino)piperidin-1-yl]prop-2-en-1-one]
IC50 [1]: 0.265 µM
IC50 [2]: > 10 µM

Structure (SMILES): C=CC(=O)N1CCC(Nc2cnc3[nH]cc(C(=O)NCC4CC(F)(F)C4)c3n2)CC1 [Example 238, 2-[(1-acryloylpiperidin-4-yl)amino]-N-[(3,3-difluorocyclobutyl)methyl]-5H-pyrrolo[2,3-b]pyrazine-7-carboxamide]
IC50 [1]: 0.0002 µM
IC50 [2]: 0.0093 µM

Structure (SMILES): C=CC(=O)N1CCC[C@@H](Nc2ncnc3[nH]cc(CC#N)c23)C1 [Example 20, (R)-2-(4-((1-Acryloylpiperidin-3-yl)amino)-7H-pyrrolo[2,3-d]pyrimidin-5-yl)acetonitrile]
IC50 [1]: 0.001 µM
IC50 [2]: 0.0765 µM

Structure (SMILES): C=CC(=O)N1CC[C@@H](CNc2cnc3[nH]cc(C(=O)NC(C)C)c3n2)C1 [Example 191, 2-({[(3S)-1-acryloylpyrrolidin-3-yl]methyl}amino)-N-(propan-2-yl)-5H-pyrrolo[2,3-b]pyrazine-7-carboxamide]
IC50 [1]: 0.0015 µM
IC50 [2]: 0.138 µM

Structure (SMILES): C=CC(=O)N1C[C@H](O)C[C@@H](Nc2ncnc3[nH]ccc23)C1 [Example 60, 1-((3R,5R)-3-((7H-Pyrrolo[2,3-d]pyrimidin-4-yl)amino)-5-hydroxypiperidin-1-yl)prop-2-en-1-one]
IC50 [1]: 0.0042 µM
IC50 [2]: 0.603 µM

Structure (SMILES): C=CC(=O)N1CCC(Nc2cnc3[nH]cc(-c4cccc(C(=O)NC)c4)c3n2)CC1 [Example 204, 3-{2-[(1-acryloylpiperidin-4-yl)amino]-5H-pyrrolo[2,3-b]pyrazin-7-yl}-N-methylbenzamide]
IC50 [1]: 0.0005 µM
IC50 [2]: 0.0493 µM

Structure (SMILES): C=C(C)C(=O)N1CCC[C@@H](Nc2ncnc3[nH]cc(Cc4ccc(O)cc4)c23)C1 [Example 139, 1-[(3R)-3-{[5-(4-hydroxybenzyl)-7H-pyrrolo[2,3-d]pyrimidin-4-yl]amino}piperidin-1-yl]-2-methylprop-2-en-1-one]
IC50 [1]: 0.0831 µM

Structure (SMILES): C#Cc1c[nH]c2ncnc(N3CC[C@H]4CCN(C(=O)C=C)C[C@H]43)c12 [Example 48, 1-[(3aS,7aS)-1-(5-ethynyl-7H-pyrrolo[2,3-d]pyrimidin-4-yl)octahydro-6H-pyrrolo[2,3-c]pyridin-6-yl]prop-2-en-1-one]
IC50 [1]: 0.0008 µM
IC50 [2]: 0.101 µM

Structure (SMILES): C=CC(=O)N1CCC(Oc2cnc3[nH]cc(-c4cncnc4)c3n2)CC1 [Example 215, 1-(4-{[7-(pyrimidin-5-yl)-5H-pyrrolo[2,3-b]pyrazin-2-yl]oxy}piperidin-1-yl)prop-2-en-1-one]
IC50 [1]: 0.0029 µM
IC50 [2]: 0.386 µM

Structure (SMILES): C=CC(=O)N1CCC[C@@H](Nc2nc(Nc3cccnc3)nc3[nH]ccc23)C1 [Example 63, 1-[(3R)-3-{[2-(Pyridin-3-ylamino)-7H-pyrrolo[2,3-d]pyrimidin-4-yl]amino}piperidin-1-yl]prop-2-en-1-one]
IC50 [1]: 0.0091 µM
IC50 [2]: 0.672 µM

Structure (SMILES): C=CC(=O)N1C[C@@H](O)C[C@@H](Nc2ncnc3[nH]ccc23)C1 [Example 17, 1-((3R,5S)-3-(7H-Pyrrolo[2,3-d]pyrimidin-4-ylamino)-5-hydroxypiperidin-1-yl)prop-2-en-1-one]
IC50 [1]: 0.0017 µM
IC50 [2]: 0.0922 µM

Second part, the molecule after the results:

IC50 [1]: 0.0096 µM
IC50 [2]: 0.794 µM
Structure (SMILES): C=CC(=O)NC[C@@]12C[C@@H]1CN(c1cnc3[nH]cc(C(=O)NC(C)C)c3n1)C2 [Example 183, 2-{(1R,5S)-1-[(acryloylamino)methyl]-3-azabicyclo[3.1.0]hex-3-yl}-N-(propan-2-yl)-5H-pyrrolo[2,3-b]pyrazine-7-carboxamide]

IC50 [1]: 0.0014 µM
IC50 [2]: 0.361 µM
Structure (SMILES): C=CC(=O)N1C[C@H](Nc2ncnc3[nH]ccc23)C[C@H](N(C)C)C1 [Example 57, 1-((3R,5S)-3-((7H-Pyrrolo[2,3-d]pyrimidin-4-yl)amino)-5-(dimethylamino)piperidin-1-yl)prop-2-en-1-one]

IC50 [1]: 2.41 µM
Structure (SMILES): C=CC(=O)NC1CCN(c2cnc3[nH]ccc3n2)C1 (stereo not shown) [Example 167, N-[1-(5H-pyrrolo[2,3-b]pyrazin-2-yl)pyrrolidin-3-yl]prop-2-enamide]

IC50 [1]: 2.48 µM
IC50 [2]: > 1 µM
Structure (SMILES): C/C=C/C(=O)N1CCC[C@@H](Nc2ncnc3[nH]ccc23)C1 [Example 95, (2E)-1-[(3R)-3-(7H-pyrrolo[2,3-d]pyrimidin-4-ylamino)piperidin-1-yl]but-2-en-1-one]

IC50 [1]: 0.029 µM
IC50 [2]: 2.29 µM
Structure (SMILES): C=CC(=O)N1CCC(CNc2cnc3[nH]cc(C(=O)NC(C)C)c3n2)CC1 [Example 193, 2-{[(1-acryloylpiperidin-4-yl)methyl]amino}-N-(propan-2-yl)-5H-pyrrolo[2,3-b]pyrazine-7-carboxamide]

IC50 [1]: 0.0003 µM
IC50 [2]: 0.0088 µM
Structure (SMILES): C=CC(=O)N1CC(Nc2cnc3[nH]cc(C(=O)NC(C)C)c3n2)C1 [Example 188, 2-[(1-acryloylazetidin-3-yl)amino]-N-(propan-2-yl)-5H-pyrrolo[2,3-b]pyrazine-7-carboxamide]

IC50 [1]: 0.0005 µM
IC50 [2]: 0.0148 µM
Structure (SMILES): C=CC(=O)N1CCC(Nc2cnc3[nH]cc(-c4cccnc4)c3n2)CC1 [Example 205, 1-(4-{[7-(pyridin-3-yl)-5H-pyrrolo[2,3-b]pyrazin-2-yl]amino}piperidin-1-yl)prop-2-en-1-one]

IC50 [1]: 0.0003 µM
IC50 [2]: 0.009 µM
Structure (SMILES): C=CC(=O)N1CCC(Nc2cnc3[nH]cc(C(=O)N[C@@H](C)CCC)c3n2)CC1 [Example 267, 2-[(1-acryloylpiperidin-4-yl)amino]-N-[(2S)-pentan-2-yl]-5H-pyrrolo[2,3-b]pyrazine-7-carboxamide]

IC50 [1]: 0.37 µM
IC50 [2]: > 10 µM
Structure (SMILES): C=CC(=O)N1Cc2ncn(C)c2C(Nc2ncnc3[nH]ccc23)C1 (stereo not shown) [Example 166, 1-[1-Methyl-7-(7H-pyrrolo[2,3-d]pyrimidin-4-ylamino)-1,4,6,7-tetrahydro-5H-imidazo[4,5-c]pyridin-5-yl]prop-2-en-1-one]

IC50 [1]: 0.0003 µM
IC50 [2]: 0.0071 µM
Structure (SMILES): C=CC(=O)N1CCC(Nc2cnc3[nH]cc(C(=O)N[C@H](C)CC)c3n2)CC1 [Example 289, 2-[(1-acryloylpiperidin-4-yl)amino]-N-[(2R)-butan-2-yl]-5H-pyrrolo[2,3-b]pyrazine-7-carboxamide]

IC50 [1]: 0.225 µM
Structure (SMILES): C=CC(=O)N1CCC[C@@H](Nc2ncnc3[nH]cc(C(=O)N(C)C)c23)C1 [Example 142, 4-{[(3R)-1-acryloylpiperidin-3-yl]amino}-N,N-dimethyl-7H-pyrrolo[2,3-d]pyrimidine-5-carboxamide]

IC50 [1]: 0.0002 µM
IC50 [2]: 0.0074 µM
Structure (SMILES): C=CC(=O)N1CCC(Nc2cnc3[nH]cc(C(=O)NCCC#N)c3n2)CC1 [Example 261, 2-[(1-acryloylpiperidin-4-yl)amino]-N-(2-cyanoethyl)-5H-pyrrolo[2,3-b]pyrazine-7-carboxamide]

IC50 [1]: 0.0012 µM
IC50 [2]: 0.2 µM
Structure (SMILES): C=CC(=O)N1CCN(c2cnc3[nH]cc(C(=O)NC(C)C)c3n2)C[C@H]1CC [Example 311, 2-[(3R)-4-acryloyl-3-ethylpiperazin-1-yl]-N-(propan-2-yl)-5H-pyrrolo[2,3-b]pyrazine-7-carboxamide]

IC50 [1]: 0.0028 µM
IC50 [2]: 0.294 µM
Structure (SMILES): C=CC(=O)N1CCC[C@@H](Nc2ncnc3[nH]cc(-c4ccc(C(=O)N(C)C)cc4)c23)C1 [Example 27, 4-(4-{[(3R)-1-acryloylpiperidin-3-yl]amino}-7H-pyrrolo[2,3-d]pyrimidin-5-yl)-N,N-dimethylbenzamide]

IC50 [1]: 0.0072 µM
Structure (SMILES): C=CC(=O)N1CCC[C@@H](Nc2c(C#N)cnc3[nH]ccc23)C1 [Example 156, 4-{[(3R)-1-Acryloylpiperidin-3-yl]amino}-1H-pyrrolo[2,3-b]pyridine-5-carbonitrile]

IC50 [1]: 0.111 µM
Structure (SMILES): C/C=C/C(=O)N1CCC[C@@H](Nc2ncnc3[nH]cc(Cc4ccc(O)cc4)c23)C1 [Example 138, (2E)-1-[(3R)-3-{[5-(4-Hydroxybenzyl)-7H-pyrrolo[2,3-d]pyrimidin-4-yl]amino}piperidin-1-yl]but-2-en-1-one]
